Tests used:
[1] = target: Cdk1‐cyclin A2 (Homo sapiens, UniProt P06493); experiment: In vitro kinase activity after 24 h incubation of active Cdk1:cyclin A2 with acrylamides; format: biochemical; conditions: for inhibition at 500 µM: 0.5 mM, 24 hours incubation, n=3, read-out: % inhibition ± SEM Cdk1
Procedure: (§1) Figure 6 a) Sequence alignment of Cdk family. Cys177 is highlighted in yellow. b) Published selectivity profiles of selected Cdk2 inhibitors.29 c) Active Cdk1/Cdk2:cyclin A2 was incubated with acrylamides 1 and 2 (0.5 mM) for 24 hours and then their in vitro kinase activity was measured (n=3). […]
(§2) Tables! 2R6.! Molecular! replacement! was! conducted! on! all! data! sets! using!Phaser[14]/MOLREP[15]!against! apoRCdk2! (PDB:!
(§3) 4EK3)!and!the! model! was! iteratively! refined! using! Phenix.Refine[16]!with! manual! modelling! and! adjustments! carried! out! in!
(§4) COOT[17].! Descriptions! of! the! ligands! and! links! were! generated! with! JLigand[18]!and! refined! with! Refmac[19].! Electron! density! […]
Cdk2! (1! mg)! was! sequentially! incubated! with! aliquots! of! CAK1! (3!×!0.05! mg)! at! r.t.! for! 4! hours! at! a! time! in! 1.5! mL! of! a! 30! mM!
Tris/HCl! buffer! (pH! 7.5)! containing! 10! mM! MgCl2,! 10! mM! ATP! and! 3! mM! DTT.! As! CAK1! appeared! to! become! rapidly! inactiR
vated! in! the! presence! of! pCdk2,! three! repetitions! were! required! to! drive! the! reaction! to! completion.! The! resulting! solution! was!
incubated!with!50!µL!of!glutathioneRSepharose!beads!and!filtered!to!remove!remaining!CAK1.!
Phosphorylation! of! T160! results! in! increased! mobility! of! Cdk2! during! gel! electrophoresis! and! the! reaction! was! monitored! by!
SDSRpage.! The! site! of! modification! was! subsequently! verified! by! western! blot! using! an! antiRT160! antibody! (Cell! Signalling!
2561)!and!complete!monoRmodification!was!confirmed!by!intact!protein!mass!spectrometry.! […]
(§5) initiated!by!addition!of!0.5!mM!ATP!and!0.24!mM!substrate!peptide!([…])!and!the!absorbance!at!340!nm!was!moniR […]
(§6) plate! reader! […]
(§7) was!measured!from!the!gradient!during!the!linear!phase!of!product!accumulation.!! […]
(§8) ments,! the! wavelength! was! adjusted! to! 230! nm! and! elipticity! was! measured! at! […]
(§9) repeats!of!10!s!integrations!per!temperature.!The!meltRtemperature!(Tm)!was!determined!using!Prism!6.0!by!fitting!a!sigmoidal! […]
(§10) The! cell! lysates! were!diluted! to! […] RIPA! lysis! buffer,! as! quantified! by! the! […]

[2] = target: T1, Cdk2:cyclin A2 (Homo sapiens, UniProt P24941); experiment: In vitro kinase activity after 24 h incubation of active Cdk2:cyclin A2 with acrylamides; format: biochemical; conditions: 0.5 mM, n=3, read-out: % inhibition ± SEM Cdk2
T1 construct: GST (N, cleaved yes); made in house; host or cells: E. coli Tuner(DE3)
Procedure: as §1, §2, §3, §4
Cdk2! (1! mg)! was! sequentially! incubated! with! aliquots! of! CAK1! (3!×!0.05! mg)! at! r.t.! for! […]
Phosphorylation! of! […] Cdk2! during! gel! electrophoresis! and! the! reaction! was! monitored! by! […]
as §5, §6, §7, §8, §9, §10

Chain of Cdk1‐cyclin A2 (P06493 whole entry): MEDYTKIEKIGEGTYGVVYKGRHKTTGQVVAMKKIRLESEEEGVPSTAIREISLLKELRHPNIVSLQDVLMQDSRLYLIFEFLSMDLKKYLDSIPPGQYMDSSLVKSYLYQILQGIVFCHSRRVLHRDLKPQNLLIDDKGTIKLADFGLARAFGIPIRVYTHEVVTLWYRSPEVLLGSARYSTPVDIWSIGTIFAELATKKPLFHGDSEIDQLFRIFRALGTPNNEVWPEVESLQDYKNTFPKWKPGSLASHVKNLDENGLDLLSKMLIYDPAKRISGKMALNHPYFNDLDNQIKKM
Chain of Cdk1‐cyclin A2 (P20248 whole entry partner): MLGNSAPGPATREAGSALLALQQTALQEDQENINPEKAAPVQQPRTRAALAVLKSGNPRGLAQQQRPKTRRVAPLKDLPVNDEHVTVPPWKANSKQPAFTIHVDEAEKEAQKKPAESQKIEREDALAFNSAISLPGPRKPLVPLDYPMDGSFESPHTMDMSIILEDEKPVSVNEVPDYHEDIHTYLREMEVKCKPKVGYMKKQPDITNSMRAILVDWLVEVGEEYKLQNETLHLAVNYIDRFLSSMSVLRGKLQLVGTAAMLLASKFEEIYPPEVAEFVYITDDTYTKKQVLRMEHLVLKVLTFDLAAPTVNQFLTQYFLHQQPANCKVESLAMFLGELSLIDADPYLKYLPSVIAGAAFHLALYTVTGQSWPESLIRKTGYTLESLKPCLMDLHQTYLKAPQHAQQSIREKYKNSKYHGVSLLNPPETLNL

SMILES	inhibition at 500 µM [1]	inhibition of Cdk1‐cyclin A2 in vitro (in words) ([1]; prolonged exposure (24 hours))	inhibition at 500 µM [2]
C=CC(=O)N1CCN(C(=O)OC(C)(C)C)c2ccccc21 [Acrylamide 1]	2 ± 10%	failed to inhibit	83 ± 3%
C=CC(=O)N1CCN(C(=O)OC)c2ccccc21 [Acrylamide 2]	-2 ± 8%	–	5 ± 6%
